We go through 26 molecules from patent US8461328B2, “Tricyclic heterocyclic compounds, compositions and methods of use thereof” (Genentech, Inc., priority 2010, dated 2013).

Assay type in all cases: biochemical
Experiment [1] addresses T1, JAK1 (Homo sapiens, UniProt P23458).
T1 construct: made in house; host or cells: SF9 insect cells (baculovirus)
Briefly: JAK1 inhibition (Table 4).

Experiment [2] has as its target T2, JAK2 (Homo sapiens, UniProt O60674).
T2 construct: made in house; host or cells: SF9 insect cells (baculovirus)
The experiment is described as follows: JAK2 inhibition (Table 4). To be noted: read-out: JAK2 Ki.

Experiment [3] has as its target T3, JAK3 (Homo sapiens, UniProt P52333).
T3 construct: made in house; host or cells: SF9 insect cells (baculovirus)
The experiment is described as follows: JAK3 inhibition (Table 4). The note with it: read-out: JAK3 Ki.

Experiment [4] has as its target T4, TYK2 (Homo sapiens, UniProt P29597).
T4 construct: made in house; host or cells: SF9 insect cells (baculovirus)
T4 sequence (P29597 873-1187): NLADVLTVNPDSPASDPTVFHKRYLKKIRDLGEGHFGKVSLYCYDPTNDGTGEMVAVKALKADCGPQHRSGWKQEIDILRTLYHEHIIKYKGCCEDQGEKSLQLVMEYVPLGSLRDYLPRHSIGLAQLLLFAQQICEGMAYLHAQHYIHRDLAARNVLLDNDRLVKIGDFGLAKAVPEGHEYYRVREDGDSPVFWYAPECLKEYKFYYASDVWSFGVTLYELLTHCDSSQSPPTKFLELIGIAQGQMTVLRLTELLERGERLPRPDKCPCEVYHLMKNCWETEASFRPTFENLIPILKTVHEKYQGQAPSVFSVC
Briefly: TYK2 inhibition (Table 4).

Read-outs that look alike come from different tables or passages of the source.

T3 sequence (P52333 783-1124): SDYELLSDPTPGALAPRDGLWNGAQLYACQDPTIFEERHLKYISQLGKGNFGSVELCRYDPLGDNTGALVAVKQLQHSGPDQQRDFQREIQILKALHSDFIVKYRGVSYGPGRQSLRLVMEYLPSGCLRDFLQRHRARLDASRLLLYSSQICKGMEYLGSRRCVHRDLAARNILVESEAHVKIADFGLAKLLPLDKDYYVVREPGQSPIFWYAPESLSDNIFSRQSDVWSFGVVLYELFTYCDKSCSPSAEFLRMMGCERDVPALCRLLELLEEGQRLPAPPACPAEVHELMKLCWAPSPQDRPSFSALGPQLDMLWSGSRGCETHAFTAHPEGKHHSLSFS
T2 sequence (O60674 812-1132): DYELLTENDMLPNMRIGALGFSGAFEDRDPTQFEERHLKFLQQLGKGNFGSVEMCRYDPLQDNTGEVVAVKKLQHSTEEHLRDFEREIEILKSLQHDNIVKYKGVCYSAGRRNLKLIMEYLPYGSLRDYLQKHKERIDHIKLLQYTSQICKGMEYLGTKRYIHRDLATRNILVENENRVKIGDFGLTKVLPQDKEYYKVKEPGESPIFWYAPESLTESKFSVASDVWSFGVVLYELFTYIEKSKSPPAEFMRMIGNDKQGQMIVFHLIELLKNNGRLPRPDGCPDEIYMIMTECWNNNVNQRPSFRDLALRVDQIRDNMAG
T1 sequence (P23458 852-1154): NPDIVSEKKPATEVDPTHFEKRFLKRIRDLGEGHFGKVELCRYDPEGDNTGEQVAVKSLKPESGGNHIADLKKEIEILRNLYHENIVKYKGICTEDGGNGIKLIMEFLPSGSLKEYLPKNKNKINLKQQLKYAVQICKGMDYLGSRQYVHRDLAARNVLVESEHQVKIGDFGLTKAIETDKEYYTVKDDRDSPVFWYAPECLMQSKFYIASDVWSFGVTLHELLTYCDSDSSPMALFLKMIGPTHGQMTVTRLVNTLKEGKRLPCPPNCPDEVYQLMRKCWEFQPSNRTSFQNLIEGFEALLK

As to `Cc1nc2cnc3[nH]ccc3c2n1[C@H]1CC[C@H](N)CC1` [Example 273, 4-(2-Methyl-6H-1,3,5,6-tetraaza-as-indacen-1-yl)-cyclohexylamine], the inhibition constant Ki in experiment [1] (read-out: JAK1 Ki) turned out to be 5.29 nM; in experiment [2], 18.9 nM; in experiment [3], 19.2 nM; in experiment [4] it was 48.4 nM.
`N#CCCN1CCC(n2c(CC(=O)N3CC(F)(F)C3)nc3cnc4[nH]ccc4c32)CC1` [Example 274, 3-(4-{2-[2-(3,3-Difluoro-azetidin-1-yl)-2-oxo-ethyl]-6H-1,3,5,6-tetraaza-as-indacen-1-yl]-piperidin-1-yl}-propionitrile]: the Ki was found to be 34.3 nM in experiment [1] (read-out: JAK1 Ki), 88.8 nM in experiment [2], 39.3 nM in experiment [3] and 259 nM in experiment [4].
As to `CC(C)(C)OC(=O)N[C@H]1CC[C@H](n2nnc3cnc4[nH]ccc4c32)CC1` [Example 276, [4-(6H-1,2,3,5,6-Pentaaza-as-indacen-1-yl)-cyclohexyl]-carbamic acid tert-butyl ester], the Ki in experiment [1] (read-out: JAK1 Ki) was found to be 12.1 nM; in experiment [2], 32.3 nM; in experiment [3] it was 378 nM; in experiment [4] it was 460 nM.
For `OCc1nc2cnc3[nH]ccc3c2n1C1CCN(Cc2cccnc2)CC1` [Example 278, [1-(1-Pyridin-3-ylmethyl-piperidin-4-yl)-1,6-dihydro-1,3,5,6-tetraaza-as-indacen-2-yl]-methanol] the same measures were 1.52 nM, 5.19 nM, 6.41 nM and 54.4 nM.
In the same order, the values of `CC(C)c1nc2cnc3[nH]ccc3c2n1C1CCN(CCC#N)CC1` [Example 281, 3-[4-(2-Isopropyl-6H-1,3,5,6-tetraaza-as-indacen-1-yl)-piperidin-1-yl]-propionitrile] are 7.49 nM, 25.1 nM, 16.3 nM and 171 nM.
For `c1cncc(CN2CCC(n3nnc4cnc5[nH]ccc5c43)CC2)c1` [Example 282, 1-(1-Pyridin-3-ylmethyl-piperidin4-yl)-1,6-dihydro-1,2,3,5,6-pentaaza-as-indacene] the same measures were 7.53 nM, 12.1 nM, 48.1 nM and 260 nM.
With `Cc1nc2cnc3[nH]ccc3c2n1C1CCN(Cc2cccnc2)CC1` [Example 283, 2-Methyl-1-(1-pyridin-3-ylmethyl-piperidin-4-yl)-1,6-dihydro-1,3,5,6-tetraaza-as-indacene], the inhibition constant (Ki) in experiment [1] (read-out: JAK1 Ki) is 0.84 nM; in experiment [2], 1.93 nM; in experiment [3], 2.63 nM; in experiment [4] it was 50.2 nM.
As to `CN1CCC[C@H]1C(=O)N1CCC(n2nnc3cnc4[nH]ccc4c32)CC1` [Example 284, ((S)-1-Methyl-pyrrolidin-2-yl)-[4-(6H-1,2,3,5,6-pentaaza-as-indacen-1-yl)-piperidin-1-yl]-methanone], the Ki in experiment [1] (read-out: JAK1 Ki) stood at 92.5 nM; in experiment [2], 604 nM; in experiment [3], 2630 nM; in experiment [4] it was 3430 nM.
For `O=C(Cc1nc2cnc3[nH]ccc3c2n1C1CCN(Cc2cccnc2)CC1)N1CCC(F)(F)CC1` [Example 286, 1-(4,4-Difluoro-piperidin-yl)-2-[1-(1-pyridin-3-ylmethyl-piperidin-4-yl)-1,6-dihydro-1,3,5,6-tetraaza-as-indacen-2-yl]-ethanone] the same measures were 3.56 nM, 47.8 nM, 6.46 nM and 442 nM.
Turning to `FC(F)(F)c1nc2cnc3[nH]ccc3c2n1[C@@H]1CCCN(Cc2ccccc2)C1` [Example 287], the Ki in experiment [1] (JAK1 Ki) came to 282 nM; in experiment [2], 145 nM; in experiment [3], 822 nM; in experiment [4], 2050 nM.
On to `N#Cc1nc2cnc3[nH]ccc3c2n1C1CCN(Cc2cccnc2)CC1` [Example 290, 1-(1-Pyridin-3-ylmethyl-piperidin-4-yl)-1,6-dihydro-1,3,5,6-tetraaza-as-indacene-2-carbonitrile], for which the Ki in experiment [1] (read-out: JAK1 Ki) was 3.94 nM; in experiment [2], 4.88 nM; in experiment [3], 6.27 nM; in experiment [4], 204 nM.
Take `N#CCCN1CCC(n2c(C#N)nc3cnc4[nH]ccc4c32)CC1` [Example 293, 1-[1-(2-Cyano-ethyl)-piperidin-4-yl]-1,6-dihydro-1,3,5,6-tetraaza-as-indacene-2-carbonitrile]: the Ki in experiment [1] (read-out: JAK1 Ki) amounted to 1.21 nM; in experiment [2], 1.31 nM; in experiment [3], 14 nM; in experiment [4], 11.9 nM.
For the molecule `FC(F)(F)c1nc(CN2CCC(n3cnc4cnc5[nH]ccc5c43)CC2)cs1` [Example 295, 1-[1-(2-Trifluoromethyl-thiazol-4-ylmethyl)-piperidin-4-yl]-1,6-dihydro-1,3,5,6-tetraaza-as-indacene], the Ki is 1.05 nM in experiment [1] (read-out: JAK1 Ki), 2.04 nM in experiment [2], 9.86 nM in experiment [3] and 28.4 nM in experiment [4].
In the case of `O=C(CC(F)(F)F)N1CCC[C@@H](n2cnc3cnc4[nH]ccc4c32)C1` [Example 296], the Ki in experiment [1] (read-out: JAK1 Ki) was determined as 3.3 nM; in experiment [2], 4.75 nM; in experiment [3] it was 19.5 nM; in experiment [4] it was 16.2 nM.
As for `CC(C)(C#N)C(=O)N1CCC[C@@H](n2cnc3cnc4[nH]ccc4c32)C1` [Example 297, 2,2-Dimethyl-3-oxo-3-[(R)-3-(6H-1,3,5,6-tetraaza-as-indacen-1-yl)-piperidin-1-yl]-propionitrile], the Ki in experiment [1] (read-out: JAK1 Ki) stood at 3.91 nM; in experiment [2] it was 5.28 nM; in experiment [3], 21 nM; in experiment [4], 31.5 nM.
In the same order, the values of `c1cc2c(ncc3nc(C4CC4)n(C4CCNCC4)c32)[nH]1` [Example 298, 2-Cyclopropyl-1-piperidin-4-yl-1,6-dihydro-1,3,5,6-tetraaza-as-indacene] are 27.8 nM, 367 nM, 231 nM and 1290 nM.
Take `FC(F)c1nc2cnc3[nH]ccc3c2n1C1CCN(Cc2ccccc2)CC1` [Example 299, 1-(1-Benzyl-piperidin-4-yl)-2-difluoromethyl-1,6-dihydro-1,3,5,6-tetraaza-as-indacene]: the inhibition constant Ki in experiment [1] (read-out: JAK1 Ki) is 2.5 nM; in experiment [2] it was 4.53 nM; in experiment [3], 4.53 nM; in experiment [4] it was 127 nM.
`FC(F)(F)c1nc2cnc3[nH]ccc3c2n1[C@@H]1CCCNC1` [Example 301, 1-(R)-Piperidin-3-yl-2-trifluoromethyl-1,6-dihydro-1,3,5,6-tetraaza-as-indacene]: the Ki in experiment [1] (read-out: JAK1 Ki) was 373 nM; in experiment [2], 1300 nM; in experiment [3], 1450 nM; in experiment [4], 2160 nM.
Consider `N#CCC(=O)N1CCC[C@@H](n2c(C(F)(F)F)nc3cnc4[nH]ccc4c32)C1` [Example 302, 3-Oxo-3-[(R)-3-(2-trifluoromethyl-6H-1,3,5,6-tetraaza-as-indacen-1-yl)-piperidin-1-yl]-propionitrile], for which the Ki was determined as 9.45 nM in experiment [1] (read-out: JAK1 Ki), 13.7 nM in experiment [2], 66.4 nM in experiment [3] and 71.7 nM in experiment [4].
As for `Fc1cncc(CN2CCC(n3cnc4cnc5[nH]ccc5c43)CC2)c1` [Example 303, 1-[1-(5-Fluoro-pyridin-3-ylmethyl)-piperidin-4-yl]-1,6-dihydro-1,3,5,6-tetraaza-as-indacene], the Ki in experiment [1] (read-out: JAK1 Ki) is 2.07 nM; in experiment [2], 3.53 nM; in experiment [3], 14.6 nM; in experiment [4], 61.2 nM.
Consider `N#Cc1cccc(CN2CCC(n3cnc4cnc5[nH]ccc5c43)CC2)n1` [Example 304, 6-[4-(6H-1,3,5,6-Tetraaza-as-indacen-1-yl)-piperidin-1-ylmethyl]-pyridine-2-carbonitrile], for which the inhibition constant (Ki) in experiment [1] (read-out: JAK1 Ki) was 3.32 nM; in experiment [2], 3.55 nM; in experiment [3], 20.4 nM; in experiment [4] it was 52.4 nM.
Consider `FC(F)c1nc2cnc3[nH]ccc3c2n1C1CCNCC1` [Example 307, 2-Difluoromethyl-1-piperidin-4-yl-1,6-dihydro-1,3,5,6-tetraaza-as-indacene], for which the Ki in experiment [1] (read-out: JAK1 Ki) worked out at 18.2 nM; in experiment [2], 228 nM; in experiment [3], 202 nM; in experiment [4], 373 nM.
`N#CCCN1CCC(n2c(C(F)F)nc3cnc4[nH]ccc4c32)CC1` [Example 308, 3-[4-(2-Difluoromethyl-6H-1,3,5,6-tetraaza-as-indacen-1-yl)-piperidin-1-yl]-propionitrile]: the Ki is 1.5 nM in experiment [1] (read-out: JAK1 Ki), 2.63 nM in experiment [2], 6.04 nM in experiment [3] and 12.3 nM in experiment [4].
In the same order, the values of `N#Cc1cccc(CN2CCC(n3c(CC(=O)N4CCC(F)(F)CC4)nc4cnc5[nH]ccc5c43)CC2)n1` [Example 309] are 52 nM, 295 nM, 93.4 nM and 1940 nM.
In the same order, the values of `CC(C)OC(=O)N[C@H]1CC[C@H](n2cnc3cnc4[nH]ccc4c32)CC1` [Example 310, [(R)-4-(6H-1,3,5,6-Tetraaza-as-indacen-1-yl)-cyclohexyl]-carbamic acid isopropyl ester] are 9.01 nM, 26.3 nM, 213 nM and 197 nM.
`N#Cc1cc(CN2CCC(n3cnc4cnc5[nH]ccc5c43)CC2)ccn1` [Example 313, 4-[4-(6H-1,3,5,6-Tetraaza-as-indacen-1-yl)-piperidin-1-ylmethyl]-pyridine-2-carbonitrile]: the inhibition constant (Ki) in experiment [1] (read-out: JAK1 Ki) came out at 1.38 nM; in experiment [2], 3.67 nM; in experiment [3], 59.6 nM; in experiment [4] it was 78.6 nM.

What is called Ki is a dissociation constant, usually derived from enzyme kinetics or from competition with a known ligand.
